From ChEMBL document CHEMBL4004883, “Biologically active perspective synthesis of heteroannulated 8-nitroquinolines with green chemistry approach” (Bioorg Med Chem Lett, 2017)
In brackets after ≈: the same amount, converted by molar mass.

Key:
MCF7 = test: Cytotoxicity against human MCF7 cells assessed as decrease in cell viability after 48 hrs by MTT assay; type: functional, cell-based; conditions: MCF7, 48 h
Bacillus subtilis [1] = test: Antibacterial activity against Bacillus subtilis MTCC 121 incubated for 24 hrs under dark condition by microwell dilution method; type: functional; conditions: MTCC 121, 24 h
[2] = Antioxidant activity assessed as total antioxidant capacity measured as ascorbic acid equivalents at 20 ug/ml after 90 mins by phosphomolybdenum method; type: functional
Bacillus subtilis [3] = test: Antibacterial activity against Bacillus subtilis MTCC 121 at 100 ug incubated for 24 hrs under dark condition by agar well diffusion method; type: functional; conditions: MTCC 121, 24 h, read-out: IZ
A549 = test: Cytotoxicity against human A549 cells assessed as decrease in cell viability after 48 hrs by MTT assay; type: functional, cell-based; conditions: A549, 48 h
[4] = Antioxidant activity assessed as assessed as ferric ion reducing activity by measuring absorbance at 700 nm at 20 ug/ml after 20 mins by spectrophotometric method; type: functional
Pseudomonas aeruginosa [5] = test: Antibacterial activity against Pseudomonas aeruginosa MTCC 102 at 100 ug incubated for 24 hrs under dark condition by agar well diffusion method; type: functional; conditions: MTCC 102, 24 h, read-out: IZ
Staphylococcus aureus [6] = test: Antibacterial activity against Staphylococcus aureus MTCC 96 incubated for 24 hrs under dark condition by microwell dilution method; type: functional; conditions: MTCC 96, 24 h
Escherichia coli [7] = test: Antibacterial activity against Escherichia coli MTCC 1652 at 100 ug incubated for 24 hrs under dark condition by agar well diffusion method; type: functional; conditions: MTCC 1652, 24 h, read-out: IZ
Escherichia coli [8] = test: Antibacterial activity against Escherichia coli MTCC 1652 incubated for 24 hrs under dark condition by microwell dilution method; type: functional; conditions: MTCC 1652, 24 h
[9] = Antioxidant activity assessed as assessed as ferric ion reducing activity by measuring absorbance at 700 nm at 60 ug/ml after 20 mins by spectrophotometric method; type: functional
[10] = Antioxidant activity assessed as total antioxidant capacity measured as ascorbic acid equivalents at 100 ug/ml after 90 mins by phosphomolybdenum method; type: functional
[11] = Antioxidant activity assessed as total antioxidant capacity measured as ascorbic acid equivalents at 60 ug/ml after 90 mins by phosphomolybdenum method; type: functional
[12] = Antioxidant activity assessed as assessed as ferric ion reducing activity by measuring absorbance at 700 nm at 100 ug/ml after 20 mins by spectrophotometric method; type: functional
Pseudomonas aeruginosa [13] = test: Antibacterial activity against Pseudomonas aeruginosa MTCC 102 incubated for 24 hrs under dark condition by microwell dilution method; type: functional; conditions: MTCC 102, 24 h
[14] = Antioxidant activity assessed as DPPH radical scavenging activity after 20 mins by UV/VIS Spectrophotometric method; type: functional
Staphylococcus aureus [15] = test: Antibacterial activity against Staphylococcus aureus MTCC 96 at 100 ug incubated for 24 hrs under dark condition by agar well diffusion method; type: functional; conditions: MTCC 96, 24 h, read-out: IZ

| MIC (Bacillus subtilis [1]) [µg/mL] | MIC (Staphylococcus aureus [6]) [µg/mL] | MIC (Escherichia coli [8]) [µg/mL] | MIC (Pseudomonas aeruginosa [13]) [µg/mL] | IC50 [14] [µg/mL] | SMILES | IC50 (MCF7) [µM] | Activity [2] [µgequiv/ml] | zone of inhibition at 100 µg/disc (Bacillus subtilis [3]) [mm] | IC50 (A549) [µM] | OD [4] | zone of inhibition at 100 µg/disc (Pseudomonas aeruginosa [5]) [mm] | zone of inhibition at 100 µg/disc (Escherichia coli [7]) [mm] | OD [9] | Activity [10] [µgequiv/ml] | Activity [11] [µgequiv/ml] | OD [12] | zone of inhibition at 100 µg/disc (Staphylococcus aureus [15]) [mm] |
| --- | --- | --- | --- | --- | --- | --- | --- | --- | --- | --- | --- | --- | --- | --- | --- | --- | --- |
| 10 (≈ 26.3 µM) | 10 (≈ 26.3 µM) | 17 (≈ 44.6 µM) | 55.5 (≈ 146 µM) | 118.03 (≈ 310 µM) | N#CC1=C(N)OC2=C(CNc3c2cccc3[N+](=O)[O-])C1c1ccc(Cl)cc1 (stereo unspecified) | 22.7 | 0.59 | 24 | 28.1 | 0.088 | 18 | 21 | 0.125 | 2.57 | 1.06 | 0.189 | 21 |
|  |  |  |  |  | Cc1cc(C(C)(C)C)c(O)c(C(C)(C)C)c1 |  |  |  |  | 0.329 |  |  | 0.448 |  |  | 0.612 |  |
| 2.5 (≈ 7.15 µM) | 2.5 (≈ 7.15 µM) | 8.5 (≈ 24.3 µM) | 18.5 (≈ 52.9 µM) |  | CC1(C)S[C@@H]2[C@H](NC(=O)[C@H](N)c3ccccc3)C(=O)N2[C@H]1C(=O)O [AMPICILLIN] |  |  | 30 |  |  | 22 | 24 |  |  |  |  | 24 |
| 50 (≈ 144 µM) | 50 (≈ 144 µM) | 80.5 (≈ 232 µM) | 200 (≈ 577 µM) | 155.12 (≈ 447 µM) | O=[N+]([O-])c1cc(Cl)cc2c1NCC1C2=NNC1c1ccc(F)cc1 (stereo unspecified) | 98.7 | 1.21 | 12 | 63.6 | 0.08 | 8 | 12 | 0.088 | 5.03 | 2.49 | 0.098 | 12 |
| 20 (≈ 49.2 µM) | 40 (≈ 98.4 µM) | 42.5 (≈ 105 µM) | 150 (≈ 369 µM) | 122.13 (≈ 301 µM) | COc1ccc(C2C(C#N)=C(N)OC3=C2CNc2c3cccc2[N+](=O)[O-])c(OC)c1 (stereo unspecified) | 51.2 | 4.79 | 15 | 44.6 | 0.08 | 13 | 15 | 0.112 | 14.2 | 9.89 | 0.162 | 14 |
| 15 (≈ 37.1 µM) | 15 (≈ 37.1 µM) | 34 (≈ 84 µM) | 100 (≈ 247 µM) | 202.18 (≈ 499 µM) | O=[N+]([O-])c1cccc2c1NCC1C2=NN(c2ccccc2)C1c1ccc(Cl)cc1 (stereo unspecified) | 41.4 | 4.12 | 16 | 28.7 | 0.082 | 13 | 17 | 0.09 | 10.4 | 6.17 | 0.101 | 17 |
| 12.5 (≈ 32.2 µM) | 10 (≈ 25.7 µM) | 17 (≈ 43.8 µM) | 55.5 (≈ 143 µM) | 205.13 (≈ 528 µM) | O=[N+]([O-])c1cccc2c1NCC1C2=NN(c2ccccc2)C1c1ccc(F)cc1 (stereo unspecified) | 46 | 4.02 | 18 | 23.2 | 0.092 | 18 | 21 | 0.1 | 11.2 | 7.36 | 0.112 | 20 |
| 12.5 (≈ 29 µM) | 12.5 (≈ 29 µM) | 34 (≈ 79 µM) | 55.5 (≈ 129 µM) | 169.91 (≈ 395 µM) | COc1ccc(C2C3CNc4c(cccc4[N+](=O)[O-])C3=NN2c2ccccc2)cc1OC (stereo unspecified) | 58.5 | 4.04 | 19 | 46.4 | 0.084 | 16 | 18 | 0.102 | 12.3 | 8.12 | 0.155 | 19 |
| 60 (≈ 162 µM) | 60 (≈ 162 µM) | 60 (≈ 162 µM) | 150 (≈ 405 µM) | 146.85 (≈ 396 µM) | O=[N+]([O-])c1cccc2c1NCC1C2=NN(c2ccccc2)C1c1ccccc1 (stereo unspecified) | 53.4 | 5.18 | 8 | 59.8 | 0.075 | 14 | 12 | 0.08 | 14.9 | 10.8 | 0.096 | 8 |
| 7.5 (≈ 20.6 µM) | 5 (≈ 13.7 µM) | 17 (≈ 46.7 µM) | 37 (≈ 102 µM) | 128.58 (≈ 353 µM) | N#CC1=C(N)OC2=C(CNc3c2cccc3[N+](=O)[O-])C1c1ccc(F)cc1 (stereo unspecified) | 35.7 | 2.12 | 26 | 22.1 | 0.085 | 20 | 22 | 0.098 | 7.45 | 4.06 | 0.12 | 23 |
| 20 (≈ 49.9 µM) | 17.5 (≈ 43.7 µM) | 42.5 (≈ 106 µM) | 200 (≈ 499 µM) | 138.8 (≈ 347 µM) | COc1ccc(C2C3CNc4c(cccc4[N+](=O)[O-])C3=NN2c2ccccc2)cc1 (stereo unspecified) | 31.3 | 4.95 | 17 | 40.2 | 0.091 | 10 | 14 | 0.134 | 14.3 | 10.5 | 0.192 | 15 |
| 12.5 (≈ 27.8 µM) | 15 (≈ 33.4 µM) | 25.5 (≈ 56.8 µM) | 55.5 (≈ 124 µM) | 226.97 (≈ 505 µM) | O=[N+]([O-])c1cccc2c1NCC1C2=NN(c2ccccc2)C1c1ccc(Br)cc1 (stereo unspecified) | 34.7 | 6.12 | 19 | 29.6 | 0.09 | 16 | 18 | 0.096 | 18.2 | 13.7 | 0.107 | 16 |
| 7.5 (≈ 16.4 µM) | 10 (≈ 21.8 µM) | 34 (≈ 74.2 µM) | 55.5 (≈ 121 µM) | 170.8 (≈ 373 µM) | CCOc1ccc(C2C3CNc4c(cccc4[N+](=O)[O-])C3=NN2c2ccccc2)c(OCC)c1 (stereo unspecified) | 65.7 | 2.46 | 23 | 50.9 | 0.068 | 18 | 19 | 0.085 | 9.47 | 5.75 | 0.098 | 19 |
| 50 (≈ 130 µM) | 50 (≈ 130 µM) | 80.5 (≈ 209 µM) | 200 (≈ 520 µM) | 185.06 (≈ 481 µM) | Cc1ccc(C2C3CNc4c(cccc4[N+](=O)[O-])C3=NN2c2ccccc2)cc1 (stereo unspecified) | 72.8 | 3.33 | 12 | 45.8 | 0.082 | 8 | 10 | 0.096 | 10.2 | 5.23 | 0.145 | 12 |
|  |  |  |  | 28.02 (≈ 159 µM) | O=C1O[C@H]([C@@H](O)CO)C(O)=C1O [ASCORBIC ACID] |  |  |  |  |  |  |  |  |  |  |  |  |
